Laboratory results taken from ChEMBL document CHEMBL1135049, “Protective effects of polygodial and related compounds on ethanol-induced gastric mucosal lesions in rats: structural requirements and mode of action” (2002).

Assays:
Rattus norvegicus [1] = test: Inhibitory effect of perorally administered compound (1.0 mg/kg) on gastric lesions induced by ethanol in 6 rats with observed lession index (76.4 mm) was determined; type: functional, Stomach
Rattus norvegicus [2] = test: Inhibitory effect of perorally administered compound (1.0 mg/kg) on gastric lesions induced by ethanol in 9 rats with observed lession index (100.5 mm) was determined; type: functional, Stomach
Rattus norvegicus [3] = test: Inhibitory effect of perorally administered compound (1.0 mg/kg) on gastric lesions induced by ethanol in 9 rats with observed lession index (88.1 mm) was determined; type: functional, Stomach
Rattus norvegicus [4] = test: Gastroprotective effect of compound was determined in rats at a concentration of 0.1 mg/kg po; type: functional
Rattus norvegicus [5] = test: Inhibitory effect of perorally administered compound (0.1 mg/kg) on gastric lesions induced by ethanol in 7 rats with observed lession index (95.0 mm) was determined; type: functional, Stomach
Rattus norvegicus [6] = test: Inhibitory effect of perorally administered compound (0.2 mg/kg) on gastric lesions induced by ethanol in 7 rats with observed lession index (50.0 mm) was determined; type: functional, Stomach
Rattus norvegicus [7] = test: Inhibitory effect of perorally administered compound (0.5 mg/kg) on gastric lesions induced by ethanol in 7 rats with observed lession index (4.3 mm) was determined; type: functional, Stomach
Rattus norvegicus [8] = test: Inhibitory effect of perorally administered compound (1.0 mg/kg) on gastric lesions induced by ethanol in 6 rats with observed lession index (0.9 mm) was determined; type: functional, Stomach
Rattus norvegicus [9] = test: Inhibitory effect of perorally administered compound (0.0005 mg/kg) on gastric lesions induced by ethanol in 10 rats with observed lession index (49.2 mm) was determined; type: functional, Stomach
Rattus norvegicus [10] = test: Inhibitory effect of perorally administered compound (0.001 mg/kg) on gastric lesions induced by ethanol in 9 rats with observed lession index (12.1 mm) was determined; type: functional, Stomach
Rattus norvegicus [11] = test: Inhibitory effect of perorally administered compound (1.0 mg/kg) on gastric lesions induced by ethanol in 6 rats with observed lession index (91 mm) was determined; type: functional, Stomach
Rattus norvegicus [12] = test: Inhibitory effect of perorally administered compound (1.0 mg/kg) on gastric lesions induced by ethanol in 6 rats with observed lession index (103.7 mm) was determined; type: functional, Stomach
Rattus norvegicus [13] = test: Inhibitory effect of perorally administered compound (0.2 mg/kg) on gastric lesions induced by ethanol in 5 rats with observed lession index (91.3 mm) was determined; type: functional, Stomach
Rattus norvegicus [14] = test: Inhibitory effect of perorally administered compound (1.0 mg/kg) on gastric lesions induced by ethanol in 5 rats with observed lession index (68.7 mm) was determined; type: functional, Stomach
Rattus norvegicus [15] = test: Inhibitory effect of perorally administered compound (1.0 mg/kg) on gastric lesions induced by ethanol in 6 rats with observed lession index (8.5 mm) was determined; type: functional, Stomach
Rattus norvegicus [16] = test: Inhibitory effect of perorally administered compound (0.05 mg/kg) on gastric lesions induced by ethanol in 7 rats with observed lession index (120 mm) was determined; type: functional, Stomach
Rattus norvegicus [17] = test: Inhibitory effect of perorally administered compound (0.5 mg/kg) on gastric lesions induced by ethanol in 7 rats with observed lession index (17.1 mm) was determined; type: functional, Stomach
Rattus norvegicus [18] = test: Gastroprotective effect of compound was determined in rats at a concentration of 0.05 mg/kg po; type: functional
Rattus norvegicus [19] = test: Inhibitory effect of perorally administered compound (0.1 mg/kg) on gastric lesions induced by ethanol in 7 rats with observed lession index (90.3 mm) was determined; type: functional, Stomach
Rattus norvegicus [20] = test: Inhibitory effect of perorally administered compound (0.2 mg/kg) on gastric lesions induced by ethanol in 7 rats with observed lession index (62.7 mm) was determined; type: functional, Stomach
Rattus norvegicus [21] = test: Inhibitory effect of perorally administered compound (0.025 mg/kg) on gastric lesions induced by ethanol in 5 rats with observed lession index (84.8 mm) was determined; type: functional, Stomach
Rattus norvegicus [22] = test: Inhibitory effect of perorally administered compound (0.1 mg/kg) on gastric lesions induced by ethanol in 5 rats with observed lession index (29.1 mm) was determined; type: functional, Stomach
Rattus norvegicus [23] = test: Inhibitory effect of perorally administered compound (0.0125 mg/Kg) on gastric lesions induced by ethanol in 5 rats with observed lession index (129.6 mm) was determined; type: functional, Stomach
Rattus norvegicus [24] = test: Inhibitory effect of perorally administered compound (0.5 mg/kg) on gastric lesions induced by ethanol in 7 rats with observed lession index (0.0 mm) was determined; type: functional, Stomach
Rattus norvegicus [25] = test: Inhibitory effect of perorally administered compound (0.2 mg/kg) on gastric lesions induced by ethanol in 5 rats with observed lession index (12.6 mm) was determined; type: functional, Stomach
Rattus norvegicus [26] = test: Gastroprotective effect of compound was determined in rats at a peroral dose of 0.0125 mg/kg; type: functional; conditions: route oral
Rattus norvegicus [27] = test: Inhibitory effect of perorally administered compound (0.05 mg/kg) on gastric lesions induced by ethanol in 5 rats with observed lession index (48.8 mm) was determined; type: functional, Stomach

**Q.** With `CC1(C)CCC[C@@]2(C)C1CC=C(C(=O)O)[C@@H]2C(=O)O` (some centres not stated) as the molecule, how does the Inhibition (Rattus norvegicus [1]) read?
**A.** 47.7%

**Q.** Which Inhibition (Rattus norvegicus [2]) does the source give for `CC1(C)CCC[C@@]2(C)C1CC=C(CO)[C@@H]2CO` (some centres not stated) here?
**A.** 27.6%

**Q.** Which Inhibition (Rattus norvegicus [3]) does the source give for `CC(=O)OCC1=CCC2C(C)(C)CCC[C@]2(C)[C@H]1COC(C)=O` (some centres not stated) here?
**A.** 36.5%

**Q.** `CO[C@@H]1O[C@@H](OC)[C@H]2C1=CCC1C(C)(C)CCC[C@@]12C` (some centres not stated) was tested. Which ED50 (Rattus norvegicus [4]) did it give?
**A.** 0.15 mg/kg

**Q.** And the Inhibition (Rattus norvegicus [5])?
**A.** 28%

**Q.** What about the Inhibition (Rattus norvegicus [6]) of the same molecule?
**A.** 62.1%

**Q.** What about the Inhibition (Rattus norvegicus [7]) of the same molecule?
**A.** 96.7%

**Q.** And the Inhibition (Rattus norvegicus [8])?
**A.** 99.3%

**Q.** Which Inhibition (Rattus norvegicus [9]) does the source give for `CCCCC(C)(C)[C@H](O)/C=C/C1[C@H](O)CC(=O)[C@@H]1C/C=C\CCCC(=O)O` (some centres not stated) here?
**A.** 64.5%

**Q.** And the Inhibition (Rattus norvegicus [10])?
**A.** 91.3%

**Q.** How did the Inhibition (Rattus norvegicus [11]) turn out when `COC(=O)C1=CCC2C(C)(C)CCC[C@]2(C)[C@H]1C(=O)OC` (some centres not stated) was run?
**A.** 37.8%

**Q.** With `CC1(C)CCC[C@@]2(C)C1CC=C1COC[C@@H]12` (some centres not stated) as the molecule, how does the Inhibition (Rattus norvegicus [12]) read?
**A.** 29.1%

**Q.** Which results are given for `CO[C@@H]1OCC2=CCC3C(C)(C)CCC[C@]3(C)[C@H]21` (some centres not stated)?
**A.** Inhibition (Rattus norvegicus [13]): 39.6%; Inhibition (Rattus norvegicus [14]): 54.6%

**Q.** With `CO[C@H]1O[C@@H](OC)[C@H]2C1=CCC1C(C)(C)CCC[C@@]12C` (some centres not stated) as the molecule, how does the Inhibition (Rattus norvegicus [15]) read?
**A.** 93.7%

**Q.** What about the Inhibition (Rattus norvegicus [16]) of the same molecule?
**A.** 11.5%

**Q.** What about the Inhibition (Rattus norvegicus [17]) of the same molecule?
**A.** 87.4%

**Q.** What about the ED50 (Rattus norvegicus [18]) of the same molecule?
**A.** 0.17 mg/kg

**Q.** What about the Inhibition (Rattus norvegicus [19]) of the same molecule?
**A.** 33.4%

**Q.** What about the Inhibition (Rattus norvegicus [20]) of the same molecule?
**A.** 53.8%

**Q.** Which Inhibition (Rattus norvegicus [21]) does the source give for `CC1(C)CCC[C@]2(C)[C@@H](C=O)C(C=O)=CC[C@@H]12` [POLYGODIAL] here?
**A.** 50%

**Q.** And the Inhibition (Rattus norvegicus [22])?
**A.** 82.8%

**Q.** And the Inhibition (Rattus norvegicus [23])?
**A.** 23.5%

**Q.** What about the Inhibition (Rattus norvegicus [24]) of the same molecule?
**A.** 100%

**Q.** And the Inhibition (Rattus norvegicus [25])?
**A.** 92.6%

**Q.** What about the ED50 (Rattus norvegicus [26]) of the same molecule?
**A.** 0.028 mg/kg

**Q.** And the Inhibition (Rattus norvegicus [27])?
**A.** 71.2%
